According to patent US10035980B2, “Extracellular matrix derived from stem cells and methods for production” (FLORIDA STATE UNIVERSITY RESEARCH FOUNDATION, INC., priority 2013, dated 2018):

What was measured:
Assay type in all cases: cell-based, Murine
[1] = system: ESC-derived NPCs; experiment: NPC proliferation assays on ECM scaffolds (fold expansion, MTT); details: NPCs on DE-EC and DE-NG scaffolds, BMS 493 1 μM, FIG. 17A
Procedure: For various ECM scaffolds, 1×10^6 dissociated NPCs or intact NPC aggregates derived from ESCs were reseeded on the ECM scaffolds and cultivated for 3-4 days in DMEM-F12 containing 2% B27. The cells were analyzed for colonization on the scaffolds, proliferation, and viability. To study the effect of retinoid signaling, BMS 493 (1 μM, Santa Cruz), a pan-retinoic acid receptor (RAR) antagonist, was supplemented in the media for some experiments.
Cell proliferation assays: Cell numbers were determined at days 3 using a hemocytometer after trypsin/EDTA dissociation for fold expansion. Cell proliferation kinetics was also determined by incubating with 5 mg/mL 3-(4,5-Dimethylthiazol-2-yl)-2,5-diphenyltetrazolium bromide (MTT, Sigma) solution. Afterwards, the formazan crystals were hydrolyzed with dimethyl sulfoxide (Sigma) and measured at 500 nm using a microplate reader.

[2] = system: ESC-derived NPCs; experiment: Neural marker expression of reseeded NPCs by flow cytometry; details: for GFAP expression upon BMS 493 treatment: FIG. 17D
Procedure: For various ECM scaffolds, 1×10^6 dissociated NPCs or intact NPC aggregates derived from ESCs were reseeded on the ECM scaffolds and cultivated for 3-4 days in DMEM-F12 containing 2% B27. The cells were analyzed for colonization on the scaffolds, proliferation, and viability. To study the effect of retinoid signaling, BMS 493 (1 μM, Santa Cruz), a pan-retinoic acid receptor (RAR) antagonist, was supplemented in the media for some experiments. After 3 days of culture in suspension, the NPC-ECM constructs were replated in 24-well plates coated with Geltrex™, the LDEV-Free Reduced Growth Factor Basement Membrane Matrix (Life Technologies), for another 3 days. The differentiation was assessed by immunocytochemistry for neural markers. […] The samples were then blocked and incubated with mouse or rabbit primary antibody against: Nestin (Sigma) or Musashi-1 (Abcam) for neural progenitors, β-tubulin III (Millipore) for neurons, or GFAP (Millipore) for astrocytes. After washing, the cells were incubated with the corresponding secondary antibody: Alexa Fluor® 488 goat anti-Mouse IgG1 for GFAP and β-tubulin III, or Alexa Fluor® 488 goat anti-Rabbit IgG for Nestin and Musashi-1 (Molecular Probes). The samples were mounted with 4′,6-Diamidino-2-Phenylindole (DAPI) and visualized using a fluorescent microscope. To quantify the levels of neural marker expression, the cells on ECM scaffolds were harvested by trypsinization and analyzed by flow cytometry. Briefly, 1×10^6 cells per sample were fixed with 4% PFA and washed with staining buffer (2% FBS in PBS). […] Alexa Fluor® 488 goat anti-Mouse IgG1 (for GFAP and β-tubulin III) or Alexa Fluor® 488 goat anti-Rabbit IgG (for Nestin and Musashi-1). The cells were acquired with BD FACSCanto™ II flow cytometer (Becton Dickinson) and analyzed against isotype controls using FlowJo software.

[3] = system: ESCs; experiment: Oct-4 expression of reseeded ESCs by flow cytometry
Procedure: (§1) To assess cell proliferation, ESCs of 0.5×10^5 per mL were seeded on the decelluarized ECMs and cultivated for 4 days in expansion media without LIF (FIG. 1). […] Cell numbers were determined at days 0, 2, and 4 using a hemocytometer after trypsin/EDTA dissociation. The specific growth rates were calculated as the slope of the proliferation curve. Cell viability was determined by the incubation with 5 mg/mL 3-(4,5-Dimethylthiazol-2-yl)-2,5-diphenyltetrazolium bromide (MTT, Sigma) solution. Afterwards, the formazan crystals were hydrolyzed with dimethyl sulfoxide (Sigma) and measured at 500 nm using a microplate reader. For the test of RA signaling, soluble RA (1 μM) or BMS 493 (1 μM, Santa Cruz), a pan-RAR antagonist, was supplemented in the media. To assess the differentiation ability after culturing on the decellularized ECMs, ESCs were replated on 0.1% gelatin-coated 12-well plates and cultured for 7 days in differentiation medium without any inducing growth factors. The cells were evaluated for the expression of Nestin (ectoderm), β-tubulin III (ectoderm), α-actinin (mesoderm), and FOXA2 (endoderm).
For flow cytometry, 1×10^6 cells per sample were fixed with 4% PFA and washed with staining buffer (2% FBS in PBS). […] The cells were acquired with BD FACSCANTO II flow cytometer (Becton Dickinson) and analyzed against isotype controls using FlowJo software.

[4] = system: ESCs; experiment: Three-germ layer differentiation of ESCs grown on decellularized ECM scaffolds
Procedure: (§2) To detect differentiation markers, the cells were incubated with mouse or rabbit primary antibody against: Nestin (Millipore), β-tubulin III (Sigma), α-actinin (sarcomeric, Sigma), or FOXA2 (Millipore). After washing, the cells were incubated with the corresponding secondary antibody: ALEXA FLUOR 488 goat anti-Mouse IgG1 (for Nestin and α-actinin) or IgG2b (for β-Tubulin III), or ALEXA FLUOR 488 goat anti-Rabbit IgG (for FOXA2). The localization of RAR-α was also assessed using goat anti-Rabbit RAR-α antibody (Abcam) detected by ALEXA FLUOR 594 donkey anti-Goat IgG.
as §1
For flow cytometry, 1×10^6 cells per sample were fixed with 4% PFA and washed with staining buffer (2% FBS in PBS). The cells were stained with DNA-intercalating dye ethidium monoazide bromide (EMA, Sigma) and permeabilized with 100% cold methanol. The samples were incubated with primary antibodies against Oct-4 (Millipore), Nestin, β-tubulin III, α-actinin, or FOXA2 followed by the corresponding secondary antibody: ALEXA FLUOR 488 goat anti-Mouse IgG1 (for Oct-4, Nestin, and α-actinin) or IgG2b (for β-tubulin III), or ALEXA FLUOR 488 goat anti-Rabbit IgG (for FOXA2). The cells were acquired with BD FACSCANTO II flow cytometer (Becton Dickinson) and analyzed against isotype controls using FlowJo software.

[5] = system: ESCs; experiment: ESC reseeding and proliferation on decellularized ECMs (specific growth rate)
Procedure: as §1

[6] = molecular target: T1, RAR-α (Mus musculus, UniProt P11416); experiment: RAR-α localization in ESCs by immunocytochemistry; details: ESCs on DE-RA10 without soluble RA; ESC monolayers exposed to soluble RA, FIG. 8A
T1 construct: Localization of RAR-α in ESC monolayers with or without RA treatment; endogenous in cells; host or cells: embryonic stem cells (monolayers, or reseeded on DE-RA10 scaffolds)
T1 sequence (P11416 1-462): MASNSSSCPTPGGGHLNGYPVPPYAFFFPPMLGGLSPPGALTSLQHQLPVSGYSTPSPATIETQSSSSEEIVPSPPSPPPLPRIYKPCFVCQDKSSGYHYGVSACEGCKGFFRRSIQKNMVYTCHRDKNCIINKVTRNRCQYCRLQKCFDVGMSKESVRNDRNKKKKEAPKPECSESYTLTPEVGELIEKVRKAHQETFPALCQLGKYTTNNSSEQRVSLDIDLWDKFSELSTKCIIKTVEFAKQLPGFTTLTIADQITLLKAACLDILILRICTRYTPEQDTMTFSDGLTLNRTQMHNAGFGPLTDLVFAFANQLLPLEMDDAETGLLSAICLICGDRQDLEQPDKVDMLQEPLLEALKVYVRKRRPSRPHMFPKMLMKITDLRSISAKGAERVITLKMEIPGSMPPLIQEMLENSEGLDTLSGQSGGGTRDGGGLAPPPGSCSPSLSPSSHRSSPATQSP
Procedure: as §2
as §1, with “For the test of RA signaling, soluble RA (1 μM) or BMS 493 (1 μM, Santa Cruz), a pan-RAR antagonist, was supplemented in the media. To assess the differentiation ability after culturing on the decellularized ECMs, ESCs were replated on 0.1% gelatin-coated 12-well plates and cultured for 7 days in differentiation medium without any inducing growth factors.” left out

[7] = BMS 493 (1 μM) added in the DE-RA10 culture, FIG. 8C
[8] = BMS 493 treated vs untreated, ESCs on DE-RA10, FIG. 8E
[9] = FIG. 8E: ESCs on DE-RA10 with or without BMS 493 (1 μM)
[10] = FIG. 8B: cells in DE-RA10 vs cells in DE-SE10 treated with soluble RA (1 μM)
[11] = FIG. 8D: ESCs on DE-RA10 vs ESCs treated by soluble RA

SMILES	cell proliferation after BMS 493 treatment [1]	GFAP expression upon BMS 493 treatment ([2]; DE-EC condition)	neural marker expression upon BMS 493 ([2]; NPCs, DE-AC group)	Nestin expression upon BMS 493 treatment ([2]; NPCs, DE-EC and DE-NC conditions, FIG. 17B)	β-Tubulin III expression upon BMS 493 treatment ([2]; cells from DE-NC scaffold, FIG. 17C)	GFAP expression upon BMS 493 treatment ([2]; cells from DE-NC scaffold)	Oct-4 expression [3, 7]	Nestin expression [4, 8]	β-tubulin III expression [4, 8]	expression of FOXA2 [4, 9] [%]	expression of α-actinin [4, 9] [%]	ESC proliferation [5, 7]	Oct-4 expression [3, 10] [%]	Nestin expression [4, 11] [%]	β-tubulin III expression [4, 11] [%]	specific growth rate [5, 10] [h⁻¹]	localization of RAR-α [6]
CC1(C)CC=C(C#Cc2ccccc2)c2cc(/C=C/c3ccc(C(=O)O)cc3)ccc21 [BMS 493]	reduced the cell proliferation	increased GFAP expression	no changes in neural marker expression	increased	significant decrease	significant decrease	not Oct-4 expression	increased	similar	24	3	reduced ESC proliferation					
CC1=C(/C=C/C(C)=C/C=C/C(C)=C/C(=O)O)C(C)(C)CCC1 [soluble RA, all-trans retinoic acid]													10.1	32	25	-0.013	translocation of RAR-α from cytoplasm to cell nucleus was confirmed
